Data from publication PMC4704819, “Honey Bee Allatostatins Target Galanin/Somatostatin-Like Receptors and Modulate Learning: A Conserved Function?” (PLoS ONE, 2016).
Where a SMILES comes first, the peptide text is derived from it. Bridges are numbered along the chain shown (N, C = ends).

Target: T1, Apime-ASTA-R (Apis mellifera, UniProt A0A7M7ILT1)
T1 sequence (A0A7M7ILT1 1-361): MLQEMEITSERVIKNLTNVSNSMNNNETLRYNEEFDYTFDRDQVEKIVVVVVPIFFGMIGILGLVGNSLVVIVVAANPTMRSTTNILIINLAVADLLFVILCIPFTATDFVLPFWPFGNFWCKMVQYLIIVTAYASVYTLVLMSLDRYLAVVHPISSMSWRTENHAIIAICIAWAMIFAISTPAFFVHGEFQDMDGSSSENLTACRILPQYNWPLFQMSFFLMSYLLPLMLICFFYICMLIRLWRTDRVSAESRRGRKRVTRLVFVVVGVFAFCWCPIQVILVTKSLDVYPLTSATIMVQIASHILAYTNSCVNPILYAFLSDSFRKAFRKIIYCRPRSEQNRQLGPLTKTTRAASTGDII
Assay: Intracellular calcium measurement, HEK293 cells expressing Apime-ASTA-R with Gαqi9 chimeric G protein
Assay type: cell-based
Details: HEK293 with Gαqi9, Fig 4D
Experimental: This vector contains an ATG initiation codon in phase with a mammalian signal peptide sequence of metabotropic glutamate receptor 5 to address receptor protein to the cell membrane, with a hemagglutinin sequence (TAG HA), and MluI and HindIII restriction sites used for cloning. The coding regions of the genes of interest were PCR amplified from cDNA template. After extraction from whole brains, 1 μg of total RNA was reverse-transcribed with random primers. […] PCR reactions included: 30s at 98°C, then 30 cycles of 10s at 98°C, 30s at 60°C, 1 min at 72°C and finally, 5 minutes at 72°C. Cloning required several amplification and digestion steps to insert the full cDNA sequences in the vector.
In all cases, 2 μg of plasmid DNA encoding the Gαqi9 chimeric G protein was included to enable artificial coupling of the receptors to phospholipase C. Electroporation (250 V, 800 μF, Biorad GenePulser X-cell) was performed in a total volume of 300 μl of electroporation buffer (50 mM K2HPO4, 20 mM CH3COOK, 20 mM KOH, 26.5 mM MgSO4, pH 7.4). After electroporation, cells were resuspended in 10 ml of culture medium and split (100 μl/well) into polyornithine-coated (Sigma #P3655), black-walled, clear bottom 96-well plates (Greiner bio-one #655090) and grown for a further 48 h prior to analyzing receptor properties. All products used for cell culture were purchased from Invitrogen Life Technologies.
Cells were washed with freshly prepared 20 mM Hepes, 1 mM MgSO4, 3.3 mM Na2CO3, 1.3 mM CaCl2, 0.1% BSA, 2.5 mM probenecid in 1X Hank's balanced salt solution (Gibco #14185), pH7.4 buffer and loaded with 1 μM Ca^2+-sensitive fluorescent dye Fluo-4 AM (Invitrogen # F14202) for 1 h at 37°C. Cells were washed once and incubated with 50 μl of buffer. A plate was prepared with the various concentrations of peptides to be tested, and 50 μl of 2X concentrated-drug solution was added in each well after 20 s of recording. Fluorescence signals (excitation 485 nm, emission 525 nm) were measured by using the fluorescence microplate reader Flexstation (Molecular Devices) at sampling intervals of 1.5 s for 60 s. All represented data correspond to means ± standard deviation (SD) from experiments performed in triplicate.
This method allows detecting ligand-induced activation of the receptor by measuring the release of intracellular calcium.

For CC(C)[C@@H]1NC(=O)[C@H](C)NC(=O)[C@H](CC(N)=O)NC(=O)[C@H](Cc2ccccc2)NC(=O)[C@H](Cc2ccc(O)cc2)NC(=O)[C@@H](NC(=O)[C@H](CCCNC(=N)N)NC(=O)[C@H](Cc2c[nH]c3ccccc23)NC(=O)[C@H](Cc2ccc(O)cc2)NC(=O)[C@@H](NC(=O)[C@H](CCCNC(=N)N)NC(=O)CNC(=O)[C@H](CCCCN)NC(=O)[C@H](C)NC(=O)[C@H](CCC(N)=O)NC(=O)CN)C(C)C)CSSC[C@@H](C(=O)N[C@@H](Cc2ccccc2)C(=O)O)NC(=O)[C@H]([C@@H](C)O)NC1=O [Apime-ASTCC] (H-GQAKGRVYWRCYFNAVTCF-OH; disulfide 11-18; N-terminus assumed), the “receptor activation (calcium), in words” value was “not activated by either ASTC or ASTCC”.
In the case of CC(C)[C@@H]1NC(=O)[C@H](C)NC(=O)[C@H](CC(N)=O)NC(=O)[C@H](Cc2ccccc2)NC(=O)[C@H](C)NC(=O)[C@@H](NC(=O)[C@H](CCC(N)=O)NC(=O)[C@H](CCCCN)NC(=O)[C@H](Cc2c[nH]c3ccccc23)NC(=O)[C@H](Cc2ccc(O)cc2)NC(=O)[C@@H](N)CO)CSSC[C@@H](C(=O)N[C@@H](Cc2ccccc2)C(N)=O)NC(=O)[C@H](CO)NC1=O [Apime-ASTC] (H-SYWKQCAFNAVSCF-NH2; disulfide 6-13; N-terminus assumed), the “receptor activation (calcium), in words” value is reported as “not activated by either ASTC or ASTCC”.
